# Measurements as given in BindingDB's records for doi:10.1016/0006-2952(93)90073-6 (Janssen Research Foundation, 1993).
# Molecular target: T1, 5-hydroxytryptamine receptor 1A (Homo sapiens, UniProt P08908)
# T1 sequence (P08908 whole entry): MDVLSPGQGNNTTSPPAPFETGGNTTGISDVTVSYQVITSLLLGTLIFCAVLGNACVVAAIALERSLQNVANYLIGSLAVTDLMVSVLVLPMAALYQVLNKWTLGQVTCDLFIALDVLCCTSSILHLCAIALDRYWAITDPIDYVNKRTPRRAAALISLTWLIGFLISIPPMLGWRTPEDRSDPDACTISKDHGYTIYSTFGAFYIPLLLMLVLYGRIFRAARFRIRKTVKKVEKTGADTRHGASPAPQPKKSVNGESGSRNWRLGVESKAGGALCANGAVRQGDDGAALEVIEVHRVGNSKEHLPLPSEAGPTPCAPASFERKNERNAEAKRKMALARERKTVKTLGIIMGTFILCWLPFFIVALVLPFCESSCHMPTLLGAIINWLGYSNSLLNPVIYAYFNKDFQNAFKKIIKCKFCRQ
row,SMILES,Ki
1,CN1C[C@@H](NS(=O)(=O)N(C)C)C[C@@H]2c3cccc4c3c(cn4C)C[C@H]21 [MESULERGINE],197 nM
2,COc1ccc(CN(CCN(C)C)c2ccccn2)cc1,> 10000 nM
3,O=c1ccc2[nH]cc(C3=CCNCC3)c2[nH]1 [CAS_127792-75-0],3750 nM
4,CCN1CCCC1CNC(=O)c1cc(S(N)(=O)=O)ccc1OC (configuration not stated) [N-[(1-ethylpyrrolidin-2-yl)methyl]-2-methoxy-5-sulfamoylbenzamide],> 10000 nM

# Further lines, results first:
row,Ki,SMILES
1,25.8 nM,OC(CNCC(O)C1CCc2cc(F)ccc2O1)C1CCc2cc(F)ccc2O1 (configuration not stated) [CAS_99200-09-6]
2,7360 nM,Cn1cc(C(F)(F)F)nc1-c1ccc(OCC(O)CNCCOc2ccc(O)c(C(N)=O)c2)cc1 (configuration not stated)
3,13.9 nM,Cc1nc2c(C)cccn2c(=O)c1CCN1CCC(c2noc3cc(F)ccc23)CC1 [CAS_129029-23-8]
